Reference: patent publication US20050196469A1, “Micronutrient supplement combination for acne treatment and prevention” (priority 2004, published 2005)

Key:
[1] = oral ingestion; cited from earlier work
acneiform eruptions = experiment: Case reports: effect on acneiform eruptions in patients; type: in vivo, human
Description: The effect of the micronutrient/mineral supplement of the present invention on acneiform eruptions is illustrated below.
1. patient six was a person with a long history of cystic acne vulgaris. They had no history of polycystic ovarian syndrome, ovarian cysts, oligomenorrhea or amenorrhea. Topical benzoyl peroxide and antibiotics provided no relief of their acne. They refused both oral contraceptive use or a trial of the diuretic spironolactone for possible acne benefits. They were contemplating a trial of accutane, when they decided to see an endocrinologist for a possible hormone etiology of their skin condition. Complete blood count, chemistries, thyroid function tests, AM cortisol were normal. Vitamin B12 and folate concentrations were normal; the total testosterone was 40 ng and not elevated; the androgenic steroids—DHEAS and androstenedione were normal. The 25 hydroxyvitamin D concentration was <5 ng/ml and intact parathyroid hormone (PTH) was elevated at 69 pg/ml (normal up to 65 pg). […] At four months, the 25 vitamin D concentration was 31 ng/ml and the total vitamin D3 was reduced to 2000 IU daily.
2. patient two was a person with chronic fatigue, inability to lose weight and severe chronic acne vulgaris unresponsive to topical treatments. They had been on Accutane multilple times but their skin improvement was transient with continual periodic acne eruptions. […] They were prescribed vitamin D3 at 4000 IU daily with calcium carbonate (elemental calcium) at 1500 mg; folate 2000 IU; vitamin B6 at 50 mcg and vitamin B12 at 500 mcg daily (B12 was prescribed at 500 mcg for 2 weeks only because of B12 deficiency) and then lowered to 50 mcg daily). A repeat 25 vitamin D level at 3 months was 30 ng and the total daily vitamin D was then lowered to 2000 IU daily; repeat B12 level was normal.
3. patient one was a person with a known history of oligomenorrhea/amenorrhea. Their menstrual cycles had been irregular with fewer than 8 cycles per year. Oral contraceptives prescribed 5 years ago normalized their menstrual cycles. […]

Structure (SMILES): C=C1CC[C@H](O)C/C1=C/C=C1\CCC[C@]2(C)[C@@H]([C@H](C)CCCC(C)C)CC[C@@H]12 [cholecalciferol]
- daily dose at which toxicity occurs [1]: 40,000 IU

Structure (SMILES): CC1=C(/C=C/C(C)=C/C=C/C(C)=C\C(=O)O)C(C)(C)CCC1 [Accutane]
- effect on acne (acneiform eruptions; patient one, earlier and current treatment): without success
- skin improvement (acneiform eruptions; patient two, earlier treatment, multiple courses): transient

Structure (SMILES): O=C(OOC(=O)c1ccccc1)c1ccccc1 [benzoyl peroxide]
- relief of acne (acneiform eruptions; patient six, earlier topical treatment): no relief
